Laboratory results taken from paper PMC10046961, “High-Throughput Screening Assay for Detecting Drug-Induced Changes in Synchronized Neuronal Oscillations and Potential Seizure Risk Based on Ca^2+ Fluorescence Measurements in Human Induced Pluripotent Stem Cell (hiPSC)-Derived Neuronal 2D and 3D Cultures” (Cells, 2023).
Where two headings read alike, the source gives them in different places. Marks after values point to notes of the source that are not given here.

What was measured:
[1] = tested on: hiPSC-derived neurons co-cultured with human primary astrocytes in 2D; test: Ca2+ transient oscillation assay (FDSS), 2D co-culture; type: cell-based; conditions: for effect on peak number / Ca2+ neuronal oscillations, in words: 2D format; for activation at 0.37 µM / activation at 1.11 µM / activation at 3.33 µM / activation at 10 µM: Homo sapiens, 1 h
Description: (§1) In this study, we used cryopreserved excitatory neurons that were differentiated from human induced pluripotent stem cells (hiPSCs; Cat #: EX-SeV-CW50065) (Elixirgen Scientific, Inc., Baltimore, MD, USA). The hiPSCs used, namely, CW50065 were derived from a healthy person and distributed by the California Institute of Regenerative Medicine Human Induced Pluripotent Stem Cell Repository. Human iPSC-derived excitatory neurons were differentiated from CW50065 using a proprietary cocktail of differentiation-inducing factors called Quick-Neuron™ EX-SeV (Batch number: EX-SeV-CW50065-L; Elixirgen Scientific, Inc.), cryopreserved 3 days after differentiation induction and distributed. Human iPSC-derived excitatory neurons were recovered from cryopreservation and maintained essentially as instructed by the manufacturer.
(§2) Cryopreserved human primary astrocytes (#N7805100, Thermo Fisher Scientific, Waltham, MA, USA) were recovered as instructed by the manufacturer and seeded in a 10 cm dish at the density of 2,000,000 cells. The culture was maintained using the Human Astrocytes Kit (#N7805200, Thermo Fisher Scientific) for 12 days. Half of the culture medium was replaced with fresh medium every 2–3 days during the culture period. These astrocytes were harvested using StemPro™ Accutase™ Cell Dissociation Reagent (#A1110501, Thermo Fisher Scientific) when they reached confluency. These cells were cryopreserved in STEM-CELLBANKER® GMP grade (ZENOGEN PHARMA, Kohriyama, Fukushima Japan) at the density of 2,000,000 cells per vial as working stocks for co-culture with neurons in 2D and 3D conditions described below. After a working stock was recovered, astrocytes were directly mixed with hiPSC-derived neurons for plating without further expansion.
Live neurons (hiPSC neurons) and human primary astrocytes were recovered from cryopreservation as described above and seeded in each well of 384-well plates at the density of 10,000 cells (HiPSC-cortical neurons) and human primary astrocytes at 2500 cells (ratio 4:1). These co-cultures were maintained under the medium conditions recommended by the manufacturer, namely Medium N(G2P), to complete the differentiation of excitatory neurons for the first week. […] Half of the culture medium was replaced with fresh medium every 3–4 days during the culture period.
After the incubation, the culture medium containing Cal-520 was replaced with 50 μL of HBSS supplemented with 0.1 mM MgCl2, 2 mM CaCl2, 10 mM HEPES, and 10 mM glucose and incubated at 37 ℃ for 15 min.
(§3) Prior to the fluorescence measurements, all wells to be measured were treated with 0.04% dimethyl sulfoxide (DMSO) to stabilize the oscillation signal. The first recording started 10 min after the addition of DMSO for each plate for 20 min. The effects of the test compound were recorded again starting 60 min after the administration of compounds, for 20 min.
Twenty-five compounds (Table 1) were first dissolved in either DMSO (most compounds) or distilled water depending on the compound, and further diluted with PBS to produce stock solutions concentrated 10-fold. […] The final concentration of DMSO was adjusted to 0.1%. Changes in the fluorescence intensity (FI) produced by Ca^2+ flux were measured at 37 °C for all wells of a 384-well plate simultaneously using the FDSS/µCell system (#C13299, Hamamatsu Photonics, Hamamatsu, Shizuoka, Japan). The excitation and the emission wavelengths were 470 nm and 540 nm, respectively. The recording duration was 20 min with a sampling frequency of 2 Hz for cells cultured under 2D conditions and 10 Hz for cells cultured under 3D conditions.

[2] = tested on: hiPSC-derived neurons co-cultured with human primary astrocytes in 3D; test: Ca2+ transient oscillation assay (FDSS), 3D spheroids; type: cell-based; conditions: for Area under the curve - 3D Mean / Peak Number—3D Mean / Peak width - 3D Mean / Peak-to-peak interval - 3D Mean: 60 min
Description: as §1, §2
We used U-shaped-bottom 96-well plates (#174925, Thermo Fisher Scientific) without any prior coating to make a spheroid in each well. Neurons and astrocytes were seeded and maintained as described for 2D cultures, except for the following modifications. First, neurons and astrocytes were seeded in each well of the 96-well plates at the density of 8000 hiPSC neurons with 8000 human primary astrocytes (8000)/well (ratio 1:1). Second, when the differentiation of excitatory neurons was completed one week after seeding, cells were fed with BrainPhys^TM Neuronal Medium (#05793, […] Technologies, Vancouver, BC, Canada) supplemented with 2% SM1 Neuronal Supplement, 1% N2 Supplement-A, and 10% Neuron culture medium for 5 weeks.
Cells maintained as spheroids (3D) in the U-shaped-bottom 96-well plates were transferred into 384-well spheroid plates (#4516, Merck, Corning, NY, USA) with 25 µL of the culture medium. A Ca^2+-indicating dye solution including […] was prepared using the EarlyTox™ Cardiotoxicity Kit (#R8211, Molecular Devices, LLC, San Jose, CA, USA) according to the manufacturer. Then, the same volume of the dye solution was dispensed into each well.
as §3
Twenty-five compounds (Table 1) were first dissolved in either DMSO (most compounds) or distilled water depending on the compound, and further diluted with PBS to produce stock solutions concentrated 10-fold. Then, 5 μL of each compound solution was injected into each well using an automatic pipetting robot (#4505, ASSIST PLUS pipetting robot, Integra Biosciences Corp., Hudson, NH, USA), so that the final concentration of each compound was 1-fold nominal in the well.

[3] = read-out: Area under the curve - 2D Mean
[4] = read-out: Peak amplitude - 2D Mean
[5] = read-out: Peak-to-peak interval - 2D Mean
[6] = symbol, based on % changes of baseline value in the peak number, concentration in parentheses in same cell

In the case of CN1CCc2cc3c(cc2[C@H]1[C@@H]1OC(=O)c2c1ccc1c2OCO1)OCO3 [Bicuculline], the “effect on peak number / Ca2+ neuronal oscillations, in words” value [1] is reported as “significantly reduced peak number”, the activation at 0.37 µM [1, 3] is reported as 15.8% and the activation at 1.11 µM [1, 3] is reported as 39.6%. For the same molecule, the activation at 3.33 µM [1, 3] was 1.6%, the activation at 10 µM [1, 3] was 22.8% and the activation at 0.37 µM ([1]; read-out: Peak Number—2D Mean) was -29.4%. The activation at 1.11 µM ([1]; read-out: Peak Number—2D Mean) was -3.5%, the activation at 3.33 µM ([1]; read-out: Peak Number—2D Mean) was 9.9% and the activation at 10 µM ([1]; read-out: Peak Number—2D Mean) was 5.8%. The activation at 0.37 µM [1, 4] was -4.1%, the activation at 1.11 µM [1, 4] was 9.3% and the activation at 3.33 µM [1, 4] was -14.1%. It also gave an activation at 10 µM [1, 4] of 9.8%, an activation at 0.37 µM ([1]; read-out: Peak width - 2D Mean) of 16.1% and an activation at 1.11 µM ([1]; read-out: Peak width - 2D Mean) of 33%. It also gave an activation at 3.33 µM ([1]; read-out: Peak width - 2D Mean) of 3.7%, an activation at 10 µM ([1]; read-out: Peak width - 2D Mean) of 11.5% and an activation at 0.37 µM [1, 5] of -17.2%. For the same molecule, the activation at 1.11 µM [1, 5] was 8.2%, the activation at 3.33 µM [1, 5] was -26.1% and the activation at 10 µM [1, 5] was -13.2%. The “Ca²⁺ Transient Peak Number (2D)” value [1, 6] was “±”, the “Area under the curve - 3D Mean” value ([2]; 0.37 µM) was 105.2 % change from baseline and the “Peak Number—3D Mean” value ([2]; 0.37 µM) was −14.9 % change from baseline. The “Peak width - 3D Mean” value ([2]; 0.37 µM) was −0.3 % change from baseline, the “Peak-to-peak interval - 3D Mean” value ([2]; 0.37 µM) was 7.6 % change from baseline and the “Area under the curve - 3D Mean” value ([2]; 1.11 µM) was 108.3 % change from baseline. The “Peak Number—3D Mean” value ([2]; 1.11 µM) was −13.0 % change from baseline, the “Peak width - 3D Mean” value ([2]; 1.11 µM) was 5.7 % change from baseline and the “Peak-to-peak interval - 3D Mean” value ([2]; 1.11 µM) was 20.3 % change from baseline. The “Area under the curve - 3D Mean” value ([2]; 3.33 µM) was 107.4 % change from baseline, the “Peak Number—3D Mean” value ([2]; 3.33 µM) was 5.8 % change from baseline and the “Peak width - 3D Mean” value ([2]; 3.33 µM) was 2.7 % change from baseline. For the same molecule, the “Peak-to-peak interval - 3D Mean” value ([2]; 3.33 µM) was 12.1 % change from baseline, the “Area under the curve - 3D Mean” value ([2]; 10 µM) was 115.2 % change from baseline and the “Peak Number—3D Mean” value ([2]; 10 µM) was −5.8 % change from baseline. The “Peak width - 3D Mean” value ([2]; 10 µM) was 8.5 % change from baseline, the “Peak-to-peak interval - 3D Mean” value ([2]; 10 µM) was 9.4 % change from baseline and the “effect on peak number of oscillations, in words” value ([2]; 3D-cultured) was “did not significantly change the peak number”. For the same molecule, the “Ca²⁺ Transient Peak Number (3D)” value [2, 6] was “±”.

In the case of C=C(C)[C@H]1CN[C@H](C(=O)O)[C@H]1CC(=O)O [Kainic Acid], the “response of positive controls on Ca2+ transient oscillations” value ([1]; 2D, 4-AP 30 µM, kainic acid 100 µM) is reported as “significant responses”, the “change of Ca2+ neuronal oscillations (Figure 1)” value ([1]; 4-AP at 30 µM, kainic acid at 10 µM) is reported as “inhibition” and the activation at 0.37 µM [1, 3] is reported as 32.3%. It also gave an activation at 1.11 µM [1, 3] of 25.2%, an activation at 3.33 µM [1, 3] of -48.2% and an activation at 10 µM [1, 3] of -100%. It also gave an activation at 0.37 µM ([1]; read-out: Peak Number—2D Mean) of 21%, an activation at 1.11 µM ([1]; read-out: Peak Number—2D Mean) of 26.8% and an activation at 3.33 µM ([1]; read-out: Peak Number—2D Mean) of -53.3%. The activation at 10 µM ([1]; read-out: Peak Number—2D Mean) was -100%, the activation at 0.37 µM [1, 4] was 11.8% and the activation at 1.11 µM [1, 4] was -2.2%. For the same molecule, the activation at 3.33 µM [1, 4] was -55%, the activation at 10 µM [1, 4] was -100% and the activation at 0.37 µM ([1]; read-out: Peak width - 2D Mean) was 22%. The activation at 1.11 µM ([1]; read-out: Peak width - 2D Mean) was 37.4%, the activation at 3.33 µM ([1]; read-out: Peak width - 2D Mean) was -23% and the activation at 10 µM ([1]; read-out: Peak width - 2D Mean) was -100%. For the same molecule, the activation at 0.37 µM [1, 5] was -1.2%, the activation at 1.11 µM [1, 5] was -19.6% and the activation at 3.33 µM [1, 5] was -53%. The activation at 10 µM [1, 5] was -100%, the “Area under the curve - 3D Mean” value ([2]; 0.37 µM) was 120.5 % change from baseline and the “Peak Number—3D Mean” value ([2]; 0.37 µM) was 1.3 % change from baseline. For the same molecule, the “Peak width - 3D Mean” value ([2]; 0.37 µM) was 4.9 % change from baseline, the “Peak-to-peak interval - 3D Mean” value ([2]; 0.37 µM) was 0.2 % change from baseline and the “Area under the curve - 3D Mean” value ([2]; 1.11 µM) was 141.9 % change from baseline. The “Peak Number—3D Mean” value ([2]; 1.11 µM) was 16.4 % change from baseline, the “Peak width - 3D Mean” value ([2]; 1.11 µM) was 10.6 % change from baseline and the “Peak-to-peak interval - 3D Mean” value ([2]; 1.11 µM) was −16.0 % change from baseline. For the same molecule, the “Area under the curve - 3D Mean” value ([2]; 3.33 µM) was 174.3 % change from baseline, the “Peak Number—3D Mean” value ([2]; 3.33 µM) was 18.7 * % change from baseline and the “Peak width - 3D Mean” value ([2]; 3.33 µM) was 41.9 % change from baseline. The “Peak-to-peak interval - 3D Mean” value ([2]; 3.33 µM) was −13.0 % change from baseline, the “Area under the curve - 3D Mean” value ([2]; 10 µM) was 58.3 % change from baseline and the “Peak Number—3D Mean” value ([2]; 10 µM) was 102.8 ** % change from baseline. The “Peak width - 3D Mean” value ([2]; 10 µM) was −20.1 % change from baseline, the “Peak-to-peak interval - 3D Mean” value ([2]; 10 µM) was −45.2 % change from baseline and the “response of positive controls on Ca2+ transient oscillations” value ([2]; 3D, 4-AP 30 µM, kainic acid 100 µM) was “significant responses”.

With NCC(=O)O [glycine] the “effect on peak number / Ca2+ neuronal oscillations, in words” value [1] was “significantly reduced peak number”.

With NC[C@H](O)c1ccc(O)c(O)c1 [norepinephrine] the “effect on peak number / Ca2+ neuronal oscillations, in words” value [1] was “significantly reduced peak number”.
